Test results published in patent publication US20120083522A1, “MODULATION OF INFLAMMATORY RESPONSES BY FACTOR XI” (Isis Pharmaceuitcals, inc., priority 2009, published 2012).
In the oligonucleotide strings, read from the 5' end, every base follows the letter of its sugar. An asterisk marks phosphorothioate; unmarked linkages are phosphodiester. Other units and linkages are bracketed, terminal groups are in braces. A string of capitals states the bases alone. e = 2'-O-(2-methoxyethyl) (MOE); [5mC] = 5-methylcytosine; d = 2'-deoxy (DNA)

Columns and labels:
Type in all cases: cell-based
[1] = tested on: human Factor XI mRNA; assay: Antisense inhibition in HepG2 cells by microwalk gapmers, 75 nM, lipofectin (Example 3); settings: HepG2 cells, 75 nM
Procedure, shortened: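 HepG2 cells (10,000 per well) were transfected with 75 nM gapmer using lipofectin and treated for about 24 h. Factor XI mRNA was quantified by real-time PCR, normalized to RiboGreen total RNA and expressed as percent inhibition versus untreated controls.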

[2] = tested on: human Factor XI mRNA; assay: Dose-dependent inhibition in HepG2 cells, electroporation (Example 4); settings: 16 hours
Method: (§1) The gapmers were also transfected via electroporation and their dose dependent inhibition of human Factor XI mRNA was measured. Cells were plated at a density of 20,000 cells per well and transfected via electroporation with 0.7 μM, 2.2 μM, 6.7 μM, and 20 μM concentrations of antisense oligonucleotide, as specified in Table 10. After a treatment period of approximately 16 hours, RNA was isolated from the cells and Factor XI mRNA levels were measured by quantitative real-time PCR. Human Factor XI primer probe set RTS 2966 was used to measure mRNA levels. Factor XI mRNA levels were adjusted according to total RNA content, as measured by RIBOGREEN®. Results are presented as percent inhibition of Factor XI, relative to untreated control cells.

[3] = tested on: human Factor XI mRNA; assay: Dose-dependent inhibition in HepG2 cells, lipofectin (Example 4); settings: 16 hours
Method: as §1, with “Cells” for “The gapmers were also transfected via electroporation and their dose dependent inhibition of human Factor XI mRNA was measured. Cells”, “10,000” for “20,000”, “using lipofectin reagent” for “via electroporation”, “9.375 nM, 18.75 nM, 37.5 nM” for “0.7 μM, 2.2 μM, 6.7 μM,”, “75 nM” for “20 μM”, “9.” for “10.”

[4] = oligonucleotides targeted to nucleobases 1275 to 1318 of SEQ ID NO: 1
[5] = oligonucleotides targeted to nucleobases 1018 to 1042 of SEQ ID NO: 1

Substance	% inhibition of human Factor XI mRNA levels [1, 4]	percent inhibition of Factor XI mRNA, relative to untreated control cells ([2]; 0.7 μM)	percent inhibition of Factor XI mRNA, relative to untreated control cells ([2]; 2.2 μM)	percent inhibition of Factor XI mRNA, relative to untreated control cells ([2]; 6.7 μM)	percent inhibition of Factor XI mRNA, relative to untreated control cells ([2]; 20 μM)	percent inhibition of Factor XI mRNA, relative to untreated control cells ([3]; 9.375 nM)	percent inhibition of Factor XI mRNA, relative to untreated control cells ([3]; 18.75 nM)	percent inhibition of Factor XI mRNA, relative to untreated control cells ([3]; 37.5 nM)	percent inhibition of Factor XI mRNA, relative to untreated control cells ([3]; 75 nM)	% inhibition of human Factor XI mRNA levels [1, 5]
416941 (antisense eG*eG*e[5mC]*dA*dG*d[5mC]*dG*dG*dA*d[5mC]*dG*dG*d[5mC]*dA*dT*dT*dG*eG*eT*eG) [compound 416941]	95%	16%	38%	79%	89%	33%	54%	63%	78%	–
416984 (antisense e[5mC]*eA*dA*d[5mC]*d[5mC]*dG*dG*dG*dA*dT*dG*dA*dT*dG*dA*eG*eT*eG*e[5mC]*eA) [compound 416984]	–	43%	54%	88%	90%	26%	50%	62%	81%	89%
416985 (antisense eG*e[5mC]*dA*dA*d[5mC]*d[5mC]*dG*dG*dG*dA*dT*dG*dA*dT*dG*eA*eG*eT*eG*e[5mC]) [compound 416985]	–	12%	48%	45%	69%	17%	30%	47%	57%	88%
417017 (antisense eG*e[5mC]*dA*dG*d[5mC]*dG*dG*dA*d[5mC]*dG*dG*d[5mC]*dA*dT*dT*eG*eG*eT*eG*e[5mC]) [compound 417017]	82%	–	–	–	–	–	–	–	–	–
417018 (antisense eG*eG*d[5mC]*dA*dG*d[5mC]*dG*dG*dA*d[5mC]*dG*dG*d[5mC]*dA*dT*eT*eG*eG*eT*eG) [compound 417018]	82%	–	–	–	–	–	–	–	–	–
417019 (antisense eT*eG*dG*d[5mC]*dA*dG*d[5mC]*dG*dG*dA*d[5mC]*dG*dG*d[5mC]*dA*eT*eT*eG*eG*eT) [compound 417019]	84%	–	–	–	–	–	–	–	–	–
417020 (antisense e[5mC]*eT*dG*dG*d[5mC]*dA*dG*d[5mC]*dG*dG*dA*d[5mC]*dG*dG*d[5mC]*eA*eT*eT*eG*eG) [compound 417020]	84%	–	–	–	–	–	–	–	–	–
417021 (antisense eA*e[5mC]*dT*dG*dG*d[5mC]*dA*dG*d[5mC]*dG*dG*dA*d[5mC]*dG*dG*e[5mC]*eA*eT*eT*eG) [compound 417021]	74%	–	–	–	–	–	–	–	–	–
